Source: US8791132B2, “Compounds and methods for treatment of hypertension” (Medivation Technologies, Inc., priority 2011, dated 2014)
“And” between values parts separate entries of the source, which are not always exact repeats. Equal entries are not always repeated. Where two headings read alike, the source gives them in different places. Each block holds one compound with its values, some of them ahead of it.

Columns and labels:
[1] = target: T1, human recombinant adrenergic α2B receptor (Homo sapiens, UniProt P18089); assay: Radioligand binding, adrenergic α2B ([3H]Rauwolscine); settings: for Ki: read-out: Ki α2B
T1 construct: expressed in transfected cells; host or cells: CHO-K1
T1 sequence (P18089 1-450): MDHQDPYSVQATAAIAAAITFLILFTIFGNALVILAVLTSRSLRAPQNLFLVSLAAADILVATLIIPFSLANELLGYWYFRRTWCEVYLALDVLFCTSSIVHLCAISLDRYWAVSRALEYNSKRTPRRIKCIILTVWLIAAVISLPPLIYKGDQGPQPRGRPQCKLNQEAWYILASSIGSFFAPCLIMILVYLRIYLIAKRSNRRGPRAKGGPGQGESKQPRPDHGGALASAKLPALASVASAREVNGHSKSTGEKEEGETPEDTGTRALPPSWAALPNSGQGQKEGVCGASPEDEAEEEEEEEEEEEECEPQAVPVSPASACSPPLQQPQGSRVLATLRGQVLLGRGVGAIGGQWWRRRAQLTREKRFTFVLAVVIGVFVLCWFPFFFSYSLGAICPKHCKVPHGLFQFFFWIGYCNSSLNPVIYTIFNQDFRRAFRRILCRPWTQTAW
Outline: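 Receptor expressed in CHO-K1 cells, assayed in 50 mM Tris-HCl pH 7.4 with 12.5 mM MgCl2, 1 mM EDTA and 0.2% BSA. Compounds were incubated with 2.5 nM [3H]Rauwolscine for 60 min at 25° C; 10 μM Prazosin defined non-specific binding. Filter counting gave percent inhibition of specific binding.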

[2] = target: T2, human recombinant adrenergic α2A receptor (Homo sapiens, UniProt P08913); assay: Radioligand binding, adrenergic α2A ([3H]MK-912); settings: for Percentage inhibition of ligand binding, Adrenergic α2A (0.1 μM) / Percentage inhibition of ligand binding, Adrenergic α2A: 0.1 µM
T2 construct: expressed in transfected cells; host or cells: insect Sf9 cells
T2 sequence (P08913 1-465): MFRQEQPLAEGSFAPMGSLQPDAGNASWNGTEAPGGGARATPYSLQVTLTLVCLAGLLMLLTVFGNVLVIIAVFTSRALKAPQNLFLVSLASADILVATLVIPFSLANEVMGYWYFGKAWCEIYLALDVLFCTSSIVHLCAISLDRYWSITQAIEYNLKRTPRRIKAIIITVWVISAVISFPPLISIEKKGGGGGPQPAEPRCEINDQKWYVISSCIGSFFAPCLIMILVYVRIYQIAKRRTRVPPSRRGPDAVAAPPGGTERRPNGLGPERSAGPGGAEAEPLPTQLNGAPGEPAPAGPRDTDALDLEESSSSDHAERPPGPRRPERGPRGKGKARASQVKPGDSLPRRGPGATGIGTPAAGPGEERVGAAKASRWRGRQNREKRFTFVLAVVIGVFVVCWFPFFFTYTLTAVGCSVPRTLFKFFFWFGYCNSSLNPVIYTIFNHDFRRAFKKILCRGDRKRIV
Outline: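 Receptor expressed in insect Sf9 cells, assayed in 50 mM Tris-HCl pH 7.4 with 12.5 mM MgCl2 and 2 mM EDTA. Compounds incubated with 1 nM [3H]MK-912 for 60 min at 25 °C; nonspecific binding defined with 10 μM WB-4101. Filter-bound radioactivity counted; values are percent inhibition of specific binding.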

[3] = target: T3, rat adrenergic α1B receptor (Rattus norvegicus, UniProt P15823); assay: Radioligand binding, adrenergic α1B ([3H]Prazosin); settings: for Percentage inhibition of ligand binding, Adrenergic α1B (0.1 μM) / Percentage inhibition of ligand binding, Adrenergic α1B: 0.1 µM
T3 construct: rat adrenergic α1B receptor obtained from Wistar Rat liver; from tissue; host or cells: Wistar rat liver
T3 sequence (P15823 1-515): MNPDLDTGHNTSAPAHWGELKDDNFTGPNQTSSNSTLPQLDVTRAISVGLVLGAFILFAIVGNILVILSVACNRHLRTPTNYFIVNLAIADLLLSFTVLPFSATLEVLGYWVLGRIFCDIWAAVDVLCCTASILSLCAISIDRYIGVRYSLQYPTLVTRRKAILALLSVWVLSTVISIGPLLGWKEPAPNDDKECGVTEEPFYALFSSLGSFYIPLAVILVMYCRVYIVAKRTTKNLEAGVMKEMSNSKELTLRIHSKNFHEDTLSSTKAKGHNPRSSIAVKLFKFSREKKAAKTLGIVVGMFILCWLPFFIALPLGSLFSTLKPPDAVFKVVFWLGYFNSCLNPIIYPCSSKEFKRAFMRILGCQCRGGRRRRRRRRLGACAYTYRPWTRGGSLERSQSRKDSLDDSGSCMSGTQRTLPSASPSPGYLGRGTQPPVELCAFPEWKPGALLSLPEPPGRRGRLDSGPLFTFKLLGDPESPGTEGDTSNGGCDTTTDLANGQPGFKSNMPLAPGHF
Outline: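 Filter binding with Wistar rat liver α1B preparation: test compound plus 0.25 nM [3H]prazosin, 1 h at 25° C in modified Tris-HCl buffer pH 7.4.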

[4] = read-out: Percentage inhibition of ligand binding, Adrenergic α2B (0.03 μM), compound at 0.03 μM, [3H]Rauwolscine, repeat datapoints each shown
[5] = read-out: Percentage inhibition of ligand binding, Adrenergic α2A (0.1 μM), compound at 0.1 μM, [3H]MK-912, repeat datapoints each shown
[6] = read-out: Percentage inhibition of ligand binding, Adrenergic α1B (0.1 μM), compound at 0.1 μM, [3H]Prazosin, repeat datapoints each shown
[7] = compound at 0.03 μM, [3H]Rauwolscine, repeat datapoints each shown, 0.03 µM
[8] = compound at 0.1 μM, [3H]MK-912, repeat datapoints each shown
[9] = compound at 0.1 μM, [3H]Prazosin, repeat datapoints each shown
[10] = 0.03 μM compound, read-out: Percentage inhibition of ligand binding, Adrenergic α2B
[11] = 0.1 μM compound, read-out: Percentage inhibition of ligand binding, Adrenergic α2A
[12] = 0.1 μM compound, read-out: Percentage inhibition of ligand binding, Adrenergic α1B
[13] = compound at 0.03 μM, [3H]Rauwolscine, repeat assays, each datapoint shown, 0.03 µM
[14] = compound at 0.1 μM, [3H]MK-912, repeat assays, each datapoint shown
[15] = compound at 0.1 μM, [3H]Prazosin, repeat assays, each datapoint shown

inhibition at 0.03 µM [1, 4]: 34% | inhibition at 0.1 µM [2, 5]: -3% | inhibition at 0.1 µM [3, 6]: 48%
SMILES: Cc1ccc2c(c1)c1c(n2CC(C)(O)c2cccnc2)CCN(C)CC1 (stereo not shown) [II-135a, 1-(3,9-dimethyl-2,3,4,5-tetrahydroazepino[4,5-b]indol-6(1H)-yl)-2-(pyridin-3-yl)propan-2-ol]

Percentage inhibition of ligand binding, Adrenergic α2B (0.03 μM) [1, 7]: 41% | Percentage inhibition of ligand binding, Adrenergic α2A (0.1 μM) [2, 8]: 2% | Percentage inhibition of ligand binding, Adrenergic α1B (0.1 μM) [3, 9]: 27%
SMILES: CN1CCc2c(c3cc(Cl)cnc3n2CC(C)(O)c2ccc(C(F)(F)F)nc2)C1 (single isomer, unassigned) [II-109a]

inhibition at 0.03 µM [1, 10]: 7% | inhibition at 0.1 µM [2, 11]: 4% | inhibition at 0.1 µM [3, 12]: 8%
SMILES: Cc1ccc2c(n1)c1c(n2CC(C)(O)c2cccnc2)CCN2CCCC12 (stereo not shown) [II-17]

Percentage inhibition of ligand binding, Adrenergic α2B [1, 13]: 6% | Percentage inhibition of ligand binding, Adrenergic α2A [2, 14]: 4% | Percentage inhibition of ligand binding, Adrenergic α1B [3, 15]: −20%
SMILES: CN1CCc2c(c3cc(C(C)(C)O)ccc3n2CC(O)c2ccncc2)C1 (single isomer, unassigned) [23a, 2-(2,3,4,5-tetrahydro-5-(2-hydroxy-2-(pyridin-4-yl)ethyl)-2-methyl-1H-pyrido[4,3-b]indol-8-yl)propan-2-ol]

inhibition at 0.03 µM [1, 4]: 8% | inhibition at 0.1 µM [2, 5]: 6% | inhibition at 0.1 µM [3, 6]: 6%
SMILES: Cc1ccc2c(c1)c1c(n2CC(C)(O)c2cnccc2C(=O)O)CCN(C)C1 (stereo not shown) [compound 179]

Percentage inhibition of ligand binding, Adrenergic α2B [1, 13]: 82% | Percentage inhibition of ligand binding, Adrenergic α2A [2, 14]: 20% | Percentage inhibition of ligand binding, Adrenergic α1B [3, 15]: 43%
SMILES: COc1ccc(C(O)Cn2c3c(c4cc(C)ccc42)CN(C)CC3)cn1 (stereo not shown) [compound 51, 2-(2,8-dimethyl-1,2,3,4-tetrahydro-pyrido[4,3-b]indol-5-yl)-1-(6-methoxy-pyridin-3-yl)-ethanol]

Percentage inhibition of ligand binding, Adrenergic α2B (0.03 μM) [1, 7]: 93% | Percentage inhibition of ligand binding, Adrenergic α2A (0.1 μM) [2, 8]: 75% | Percentage inhibition of ligand binding, Adrenergic α1B (0.1 μM) [3, 9]: 61%
SMILES: Cc1cc2c3c(n(CC(C)(O)c4cccnc4)c2cc1Cl)CCN(C)C3 (single isomer, unassigned) [II-123b, 1-(7-chloro-2,8-dimethyl-3,4-dihydro-1H-pyrido[4,3-b]indol-5(2H)-yl)-2-(pyridin-3-yl)propan-2-ol]

SMILES: Cc1ccc2c(c1)c1c(n2CC(N)c2ccncc2)CCN(C)CC1 (stereo not shown) [compound 154, 2-(3,9-dimethyl-2,3,4,5-tetrahydroazepino[4,5-b]indol-6(1H)-yl)-1-(pyridin-4-yl)ethanamine]
Percentage inhibition of ligand binding, Adrenergic α2B (0.03 μM) [1, 7]: 58% | Percentage inhibition of ligand binding, Adrenergic α2A (0.1 μM) [2, 8]: 15% | Percentage inhibition of ligand binding, Adrenergic α1B (0.1 μM) [3, 9]: 86%

inhibition at 0.03 µM [1, 4]: 81% | inhibition at 0.1 µM [2, 5]: 31% | inhibition at 0.1 µM [3, 6]: 82%
SMILES: Cc1ccc2c(c1)c1c(n2CCc2ccc(C)nc2)CCN2CCCC12 (stereo not shown) [197a, 9-methyl-6-[2-(6-methyl-pyridin-3-yl)-ethyl]-2,3,4,5,6,10c-hexahydro-1H-3a, 6-diaza-cyclopenta[c]fluorene]

Percentage inhibition of ligand binding, Adrenergic α2B [1, 13]: 11% | Percentage inhibition of ligand binding, Adrenergic α2A [2, 14]: −2% | Percentage inhibition of ligand binding, Adrenergic α1B [3, 15]: 59%
SMILES: Cc1ccc2c(c1)c1c(n2CC(O)c2ccncc2)CC2CCCCN2C1 (racemic) [75c]

Percentage inhibition of ligand binding, Adrenergic α2B (0.03 μM) [1, 7]: 102% | Percentage inhibition of ligand binding, Adrenergic α2A (0.1 μM) [2, 8]: 57% | Percentage inhibition of ligand binding, Adrenergic α1B (0.1 μM) [3, 9]: 32%
SMILES: CC1Cc2c(c3cc(Cl)ccc3n2CC(C)(O)c2cccnc2)CN1C (single isomer, unassigned) [II-147a, 1-(8-chloro-2,3-dimethyl-3,4-dihydro-1H-pyrido[4,3-b]indol-5(2H)-yl)-2-(pyridin-3-yl)propan-2-ol]

inhibition at 0.03 µM ([1]; compound at 0.03 μM, [3H]Rauwolscine, repeat assays, each datapoint shown, read-out: Percentage inhibition of ligand binding, Adrenergic α2B): 36% | inhibition at 0.1 µM ([2]; compound at 0.1 μM, [3H]MK-912, repeat assays, each datapoint shown, read-out: Percentage inhibition of ligand binding, Adrenergic α2A): 14% | inhibition at 0.1 µM ([3]; compound at 0.1 μM, [3H]Prazosin, repeat assays, each datapoint shown, read-out: Percentage inhibition of ligand binding, Adrenergic α1B): 3%
SMILES: CN1CCc2c(c3cc(Cl)ccc3n2CC(C)(O)c2cccnc2)C1 (stereo not shown) [31b]

inhibition at 0.03 µM [1, 4]: 104% | inhibition at 0.1 µM [2, 5]: 83% | inhibition at 0.1 µM [3, 6]: 91%
SMILES: C/C(=C\n1c2c(c3cc(C)ccc31)C1CCCN1CC2)c1ccc(C)nc1 (single isomer, unassigned) [193b, 10-methyl-7-(2-(6-methylpyridin-3-yl)prop-1-enyl)-2,3,5,6,7,11c-hexahydro-1H-indolizino[7,8-b]indole]

Percentage inhibition of ligand binding, Adrenergic α2B (0.03 μM) [1, 7]: 67% | Percentage inhibition of ligand binding, Adrenergic α2A (0.1 μM) [2, 8]: 12% | Percentage inhibition of ligand binding, Adrenergic α1B (0.1 μM) [3, 9]: 41%
SMILES: Cc1ccc2c(c1)c1c(n2CC(C)(O)c2cnccn2)CCN2CCCC12 (single isomer, unassigned) [176b]

Percentage inhibition of ligand binding, Adrenergic α2B [1, 13]: 30% and 36% | Percentage inhibition of ligand binding, Adrenergic α2B ([1]; compound at 0.1 μM, [3H]Rauwolscine, repeat assays, each datapoint shown, 0.1 µM): 48% | Ki [1]: 0.0434 µM | Ki [2]: 3.71 µM | Percentage inhibition of ligand binding, Adrenergic α1B [3, 15]: 6% and 16%
SMILES: Cc1ccc2c(c1)c1c(n2CC(N)c2ccncc2)CCN(C)C1 (single isomer, unassigned) [27b, 2-(1,2,3,4-tetrahydro-2,8-dimethylpyrido[4,3-b]indol-5-yl)-1-(pyridin-4-yl)ethanamine]

Percentage inhibition of ligand binding, Adrenergic α2B (0.03 μM) [1, 7]: 70% | Percentage inhibition of ligand binding, Adrenergic α2A (0.1 μM) [2, 8]: 22% | Percentage inhibition of ligand binding, Adrenergic α1B (0.1 μM) [3, 9]: 68%
SMILES: Cc1ccc2c(c1)c1c(n2CC(O)c2cc[nH]c(=O)c2)CCN2CCCC12 (single isomer, unassigned) [II-132b, 4-(2-(2,3,5,6-tetrahydro-10-methyl-1H-indolizino[7,8-b]indol-7(11cH)-yl)-1-hydroxyethyl)pyridin-2(1H)-one]

SMILES: CN1C2CCC1c1c(n(CC(O)c3ccncc3)c3ccc(Cl)cc13)C2 (stereo not shown) [II-66]
inhibition at 0.03 µM [1, 10]: 46% | inhibition at 0.1 µM [2, 11]: 0% | inhibition at 0.1 µM [3, 12]: 27%

Percentage inhibition of ligand binding, Adrenergic α2B (0.03 μM) [1, 7]: 101% and 103% | Ki [1]: 0.00033 µM | Percentage inhibition of ligand binding, Adrenergic α2A (0.1 μM) [2, 8]: 37% | Percentage inhibition of ligand binding, Adrenergic α1B (0.1 μM) [3, 9]: 70% and 75% | inhibition at 0.03 µM ([3]; read-out: Percentage inhibition of ligand binding, Adrenergic α1B (0.03 μM), compound at 0.03 μM, [3H]Prazosin, repeat datapoints each shown): 43%
SMILES: CC(O)(Cn1c2c(c3cc(Cl)cnc31)C1CCCN1CC2)c1cccnc1 (single isomer, unassigned) [IV-210a]
